From publication PMC7450057, “Enhancing intracellular accumulation and target engagement of PROTACs with reversible covalent chemistry” (Nature Communications, 2020)
Several values for one entry are separate records, joined by “and”; a condition that tells them apart may be missing. Identical values can stand only once.

Key:
[1] = target: truncated Cereblon protein (Homo sapiens, UniProt Q96SW2); experiment: CRBN binding assay (fluorescence quenching); settings: for Fluorescence Intensity: Supplementary Figure 11, replicates
In short: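 Kd derived from a quenching-curve fit (I=I0−If×Kd/P0+Kd+If) after buffer-blank subtraction. Compound used at 100 nM final with truncated Cereblon protein.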

MOLM-14 cells = experiment: Quantification of intracellular drug concentration by LC-MS; assay type: in vitro ADME; settings: for Intracellular concentration: Concentration of compound, AVE / intracellular amount, AVE / intracellular amount / Intracellular concentration: Concentration of compound: 200 nM; for Intracellular concentration: Concentration of compound, AVE / intracellular amount, AVE: average of 3 replicates; for intracellular amount: initial amount 0.4000 nmol; for Intracellular concentration: Concentration of compound: sample volume 400 µL
Description: MOLM-14 cells were seeded at a density of 0.5 × 10^6 per mL in 2 mL medium. […] The samples were immediately centrifuged at 12,000 × g for 15 min at 4 °C, then removing the supernatant. In all, 400 μL of NP-40 lysis buffer was added to the cell pellet and mixed thoroughly. The mixtures were rocked for 1 h at 4 °C and centrifuged at 12,000 × g for 15 min at 4 °C. Then the supernatant was transferred to new EP tubes. In total, 20 µL supernatant was extracted with 180 µL of acetonitrile (containing internal standard: 250 nM of RNC-Ctrl) and centrifuged at the same conditions described above. Take 75 μL of supernatant for liquid chromatography-mass spectrometry analysis.
The mass spectrometer was operated in positive SIM ion mode (fragmentor 120 V; cycle time 0.6 s/cycle; Agilent Technologies 6130 Quadrupole LC/MS).

BTK [2] = target: T1, BTK (Homo sapiens, UniProt Q06187); experiment: In vitro BTK kinase assay (PhosphoSens); assay type: biochemical; design: purchased SignalChem B10-10H-10
BTK [3] = target: T1, BTK; experiment: BTK degradation in MOLM-14 cells (western blot); assay type: cell-based; design: endogenous in cells; host or cells: MOLM-14; settings: for BTK%: Figure 2c, DMSO = 100
Mino = experiment: IC50 in MCL cell lines (Supplementary Table 2), Mino; settings: for Cell Viability (%): Mino cells, replicate wells
Jeko-1 = experiment: IC50 in MCL cell lines (Supplementary Table 2), Jeko-1; settings: for Cell Viability (%): Jeko-1 cells, replicate wells

Sequence of truncated Cereblon protein (Q96SW2 318-426): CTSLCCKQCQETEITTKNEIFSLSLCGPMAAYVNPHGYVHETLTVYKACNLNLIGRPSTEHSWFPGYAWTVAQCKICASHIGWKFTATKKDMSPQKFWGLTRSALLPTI
T1 sequence (Q06187 whole entry): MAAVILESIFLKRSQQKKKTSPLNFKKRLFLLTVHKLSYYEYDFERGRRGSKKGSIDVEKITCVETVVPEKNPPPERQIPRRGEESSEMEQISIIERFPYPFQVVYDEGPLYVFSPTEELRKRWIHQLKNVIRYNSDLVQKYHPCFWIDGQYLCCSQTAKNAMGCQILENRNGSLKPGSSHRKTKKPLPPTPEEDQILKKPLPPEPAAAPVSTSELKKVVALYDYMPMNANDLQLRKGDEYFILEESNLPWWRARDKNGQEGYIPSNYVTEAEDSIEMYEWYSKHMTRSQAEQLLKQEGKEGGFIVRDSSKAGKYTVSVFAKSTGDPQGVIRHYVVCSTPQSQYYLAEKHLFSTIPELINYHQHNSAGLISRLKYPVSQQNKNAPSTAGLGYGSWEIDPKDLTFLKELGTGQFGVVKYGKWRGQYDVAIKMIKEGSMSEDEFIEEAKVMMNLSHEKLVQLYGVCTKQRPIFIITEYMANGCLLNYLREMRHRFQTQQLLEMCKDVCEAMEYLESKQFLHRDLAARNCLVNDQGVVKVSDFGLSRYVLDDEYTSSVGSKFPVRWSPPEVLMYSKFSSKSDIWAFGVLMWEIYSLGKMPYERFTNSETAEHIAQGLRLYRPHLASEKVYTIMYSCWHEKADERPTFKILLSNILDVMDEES

## CN(CCCNC(=O)CNc1cccc2c1C(=O)N(C1CCC(=O)NC1=O)C2=O)C(C)(C)C=C(C#N)C(=O)N1CCC[C@@H](n2nc(-c3ccc(Oc4ccccc4)cc3)c3c(N)ncnc32)C1 (stereo partly drawn) [RC-1]
[1]; CRBN 0 μM
  Fluorescence Intensity: 4127.8 and 4128.8 and 3844.8
[1]; CRBN 0.734375 μM
  Fluorescence Intensity: 3220.8 and 3187.8 and 3673.8
[1]; CRBN 1.46875 μM
  Fluorescence Intensity: 3204.8 and 3148.8 and 2908.8
[1]; CRBN 2.9375 μM
  Fluorescence Intensity: 2864.8 and 2662.8 and 2860.8
[1]; CRBN 5.875 μM
  Fluorescence Intensity: 2528.8 and 2598.8 and 2686.8
[1]; CRBN 11.75 μM
  Fluorescence Intensity: 1735.8 and 1776.8 and 2083.8
[1]; CRBN 23.5 μM
  Fluorescence Intensity: 1563.8 and 1722.8 and 1455.8
[1]; truncated Cereblon protein, fluorescence quenching, triplicates
  Kd: 4200 nM
MOLM-14 cells; 5 min
  Intracellular concentration: Concentration of compound, AVE: 0.1304 µM
  intracellular amount, AVE: 0.0522 nmol
MOLM-14 cells; 5 min, single replicates
  intracellular amount: 0.0607 nmol and 0.0507 nmol and 0.0451 nmol
  Intracellular concentration: Concentration of compound: 0.1517 µM and 0.1267 µM and 0.1128 µM
MOLM-14 cells; 15 min
  Intracellular concentration: Concentration of compound, AVE: 0.1127 µM
  intracellular amount, AVE: 0.0451 nmol
MOLM-14 cells; 15 min, single replicates
  intracellular amount: 0.0487 nmol and 0.0414 nmol and 0.0451 nmol
  Intracellular concentration: Concentration of compound: 0.1218 µM and 0.1035 µM and 0.1128 µM
MOLM-14 cells; 30 min
  Intracellular concentration: Concentration of compound, AVE: 0.1159 µM
  intracellular amount, AVE: 0.0464 nmol
MOLM-14 cells; 30 min, single replicates
  intracellular amount: 0.0474 nmol and 0.0471 nmol and 0.0447 nmol
  Intracellular concentration: Concentration of compound: 0.1184 µM and 0.1177 µM and 0.1117 µM
MOLM-14 cells; 60 min
  Intracellular concentration: Concentration of compound, AVE: 0.1117 µM
  intracellular amount, AVE: 0.0447 nmol
MOLM-14 cells; 60 min, single replicates
  intracellular amount: 0.0471 nmol and 0.0390 nmol and 0.0480 nmol
  Intracellular concentration: Concentration of compound: 0.1177 µM and 0.0975 µM and 0.1199 µM
MOLM-14 cells; 90 min
  Intracellular concentration: Concentration of compound, AVE: 0.1080 µM
  intracellular amount, AVE: 0.0432 nmol
MOLM-14 cells; 90 min, single replicates
  intracellular amount: 0.0436 nmol and 0.0454 nmol and 0.0405 nmol
  Intracellular concentration: Concentration of compound: 0.1091 µM and 0.1136 µM and 0.1013 µM
MOLM-14 cells; 120 min
  Intracellular concentration: Concentration of compound, AVE: 0.1194 µM
  intracellular amount, AVE: 0.0478 nmol
MOLM-14 cells; 120 min, single replicates
  intracellular amount: 0.0460 nmol and 0.0513 nmol
  Intracellular concentration: Concentration of compound: 0.1151 µM and 0.1282 µM
MOLM-14 cells; 240 min
  Intracellular concentration: Concentration of compound, AVE: 0.1060 µM
  intracellular amount, AVE: 0.0424 nmol
MOLM-14 cells; 240 min, single replicates
  intracellular amount: 0.0426 nmol and 0.0421 nmol and 0.0424 nmol
  Intracellular concentration: Concentration of compound: 0.1065 µM and 0.1054 µM and 0.1061 µM
MOLM-14 cells; 5 min, Mean
  Cellular concentration: 0.0522 nmol/million cells
MOLM-14 cells; 5 min, single replicates, MOLM-14, 200 nM
  Cellular concentration: 0.0607 nmol/million cells and 0.0507 nmol/million cells and 0.0451 nmol/million cells
MOLM-14 cells; 15 min, Mean
  Cellular concentration: 0.0451 nmol/million cells
MOLM-14 cells; 15 min, single replicates, MOLM-14, 200 nM
  Cellular concentration: 0.0487 nmol/million cells and 0.0414 nmol/million cells and 0.0451 nmol/million cells
MOLM-14 cells; 30 min, Mean
  Cellular concentration: 0.0464 nmol/million cells
MOLM-14 cells; 30 min, single replicates, MOLM-14, 200 nM
  Cellular concentration: 0.0474 nmol/million cells and 0.0471 nmol/million cells and 0.0447 nmol/million cells
MOLM-14 cells; 60 min, Mean
  Cellular concentration: 0.0447 nmol/million cells
MOLM-14 cells; 60 min, single replicates, MOLM-14, 200 nM
  Cellular concentration: 0.0390 nmol/million cells and 0.0480 nmol/million cells and 0.0471 nmol/million cells and 0.039 nmol/million cells and 0.048 nmol/million cells
MOLM-14 cells; 90 min, Mean
  Cellular concentration: 0.0432 nmol/million cells
MOLM-14 cells; 90 min, single replicates, MOLM-14, 200 nM
  Cellular concentration: 0.0436 nmol/million cells and 0.0454 nmol/million cells and 0.0405 nmol/million cells
MOLM-14 cells; 120 min, Mean
  Cellular concentration: 0.0478 nmol/million cells
MOLM-14 cells; 120 min, single replicates, MOLM-14, 200 nM
  Cellular concentration: 0.0460 nmol/million cells and 0.046 nmol/million cells and 0.0513 nmol/million cells
MOLM-14 cells; 240 min, Mean
  Cellular concentration: 0.0424 nmol/million cells
MOLM-14 cells; 240 min, single replicates, MOLM-14, 200 nM
  Cellular concentration: 0.0426 nmol/million cells and 0.0421 nmol/million cells and 0.0424 nmol/million cells
MOLM-14 cells; LC-MS of cell lysates
  intracellular concentration of RC-1 relative to RNC-1 and IRC-1: ~ 2 fold
BTK [2]; AssayQuant BTK assay kit, 2.5 nM BTK, 1 mM ATP, duplicates, read-out: BTK inhibition IC50
  IC50: 1.8 nM
BTK [2]; Supplementary Figure 5, drug concentration 2.56 pM, replicates, read-out: Inhibition(%)
  activity at 2.56 pM: 87.3%
BTK [2]; Supplementary Figure 5, drug concentration 12.8 pM, replicates, read-out: Inhibition(%)
  activity at 12.8 pM: 93.2%
BTK [2]; Supplementary Figure 5, drug concentration 64 pM, replicates, read-out: Inhibition(%)
  activity at 64 pM: 89.4%
BTK [2]; Supplementary Figure 5, drug concentration 320 pM, replicates, read-out: Inhibition(%)
  activity at 0.00032 µM: 87.3%
BTK [2]; Supplementary Figure 5, drug concentration 1600 pM, replicates, read-out: Inhibition(%)
  activity at 0.0016 µM: 55%
BTK [2]; Supplementary Figure 5, drug concentration 8000 pM, replicates, read-out: Inhibition(%)
  activity at 0.008 µM: 8.41%
BTK [2]; Supplementary Figure 5, drug concentration 40000 pM, replicates, read-out: Inhibition(%)
  activity at 0.04 µM: 3.46%
BTK [2]; Supplementary Figure 5, drug concentration 200000 pM, replicates, read-out: Inhibition(%)
  activity at 0.2 µM: 2.91%
BTK [2]; Supplementary Figure 5, drug concentration 1000000 pM, replicates, read-out: Inhibition(%)
  activity at 1 µM: 2.99%
BTK [3]; Figure 2b, 8 nM, duplicates
  Quantification anti-BTK / anti-β-actin (BTK level vs DMSO): 63.6968 and 56.9893
BTK [3]; Figure 2b, 40 nM, duplicates
  Quantification anti-BTK / anti-β-actin (BTK level vs DMSO): 41.0784 and 35.9122
BTK [3]; Figure 2b, 200 nM, duplicates
  Quantification anti-BTK / anti-β-actin (BTK level vs DMSO): 29.8182 and 40.565
BTK [3]; 1.6 nM, duplicates
  BTK%: 93.8522% and 87.3729%
BTK [3]; 8 nM, duplicates
  BTK%: 68.8086% and 49.2324%
BTK [3]; 200 nM, duplicates
  BTK%: 29.085% and 28.987%
BTK [3]; 1000 nM, duplicates
  BTK%: 33.1562% and 45.5509%
BTK [3]; Figure 2d, DMSO = 100 (mean)
  Quantification anti-BTK / anti-β-actin (BTK level vs DMSO): 23.0985
BTK [3]; MOLM-14 cells, 200 nM, 24 h incubation
  Degradation at 200 nM (percentage of BTK degradation): 81%
BTK [3]; MOLM-14 cells, 24 h, western blot, read-out: DC50 (compound concentration inducing 50% of protein degradation)
  DC50: 6.6 nM
Mino; 1.25E-06 M
  Cell Viability (%): 39.6721% and 39.1711% and 38.89%
Mino; 1.56E-07 M
  Cell Viability (%): 67.6678% and 68.2351% and 62.6329%
Mino; 2.50E-06 M
  Cell Viability (%): 36.14% and 35.6851% and 33.7887%
Mino; 3.13E-07 M
  Cell Viability (%): 53.7594% and 53.6077% and 49.7111%
Mino; 5.00E-06 M
  Cell Viability (%): 32.4512% and 31.601% and 30.272%
Mino; 6.25E-07 M
  Cell Viability (%): 49.0909% and 46.392% and 45.7071%
Mino; 7.81E-08 M
  Cell Viability (%): 89.7818% and 79.7053% and 78.5229%
Mino; Mino, triplicates
  IC50: 400 nM
Jeko-1; Jeko-1, triplicates
  IC50: 200 nM
Jeko-1; 1.25E-06 M
  Cell Viability (%): 8.1% and 9.79% and 4.911%
Jeko-1; 1.56E-07 M
  Cell Viability (%): 59.0193% and 84.765% and 42.1211%
Jeko-1; 2.50E-06 M
  Cell Viability (%): 5.234% and 3.584% and 4.277%
Jeko-1; 3.13E-07 M
  Cell Viability (%): 35.9177% and 48.9386% and 32.3116%
Jeko-1; 5.00E-06 M
  Cell Viability (%): 6.285% and 4.711% and 5.303%
Jeko-1; 6.25E-07 M
  Cell Viability (%): 26.3007% and 22.6601% and 16.326%
Jeko-1; 7.81E-08 M
  Cell Viability (%): 58.1018% and 72.8615% and 48.2775%
